pIC50: −log10 of the molar value. Values belong to the compound of their own block, whether it stands above or below them.
Test system: 967376-340-R-J2-PDC multicell spheroid viability
Assay: Anticancer human tumor 967376-340-R-J2-PDC patient-derived colon adenocarcinoma cell line growth inhibition [PI3K]
Conditions: for pIC50: curve of first compound; for viability, T/C: stronger effect = lower value
Method in brief: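 We assembled tumor spheroids that included a stromal compartment of HUVEC and MSCs, then exposed them to targeted agents alone and together with PI3K pathway inhibitors. Concentration series descended by half-log from clinically achievable Cmax levels. Viability served as the endpoint.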

[1] = second compound 0.0316 µM, first compound 0.0316 µM
[2] = second compound 0.0316 µM, first compound 0.1 µM
[3] = second compound 0.0316 µM, first compound 0.316 µM
[4] = second compound 0.0316 µM, first compound 1 µM
[5] = second compound 0.0316 µM, first compound 3.16 µM
[6] = second compound 0.0316 µM, first compound 10 µM
[7] = second compound 0.1 µM, first compound 0.0316 µM
[8] = second compound 0.1 µM, first compound 0.1 µM
[9] = second compound 0.1 µM, first compound 0.316 µM
[10] = second compound 0.1 µM, first compound 1 µM
[11] = second compound 0.1 µM, first compound 3.16 µM
[12] = second compound 0.1 µM, first compound 10 µM
[13] = second compound 0.316 µM, first compound 0.0316 µM
[14] = second compound 0.316 µM, first compound 0.1 µM
[15] = second compound 0.316 µM, first compound 0.316 µM
[16] = second compound 0.316 µM, first compound 1 µM
[17] = second compound 0.316 µM, first compound 3.16 µM
[18] = second compound 0.316 µM, first compound 10 µM
[19] = second compound 1 µM, first compound 0.0316 µM
[20] = second compound 1 µM, first compound 0.1 µM
[21] = second compound 1 µM, first compound 0.316 µM
[22] = second compound 1 µM, first compound 1 µM
[23] = second compound 1 µM, first compound 3.16 µM
[24] = second compound 1 µM, first compound 10 µM
[25] = second compound 3.16 µM, first compound 0.0316 µM
[26] = second compound 3.16 µM, first compound 0.1 µM
[27] = second compound 3.16 µM, first compound 0.316 µM
[28] = second compound 3.16 µM, first compound 1 µM
[29] = second compound 3.16 µM, first compound 3.16 µM
[30] = second compound 3.16 µM, first compound 10 µM
[31] = second compound 10 µM, first compound 0.0316 µM
[32] = second compound 10 µM, first compound 0.1 µM
[33] = second compound 10 µM, first compound 0.316 µM
[34] = second compound 10 µM, first compound 1 µM
[35] = second compound 10 µM, first compound 3.16 µM
[36] = second compound 10 µM, first compound 10 µM
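Note: spheroids exposed to agents for 7 days before read-out.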
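Throughout, for viability, T/C: luminescence used as surrogate of cell viability.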

pIC50 (second compound 0.0316 µM): < 5.00
pIC50 (second compound 0.1 µM): < 5.00
pIC50 (second compound 0.316 µM): < 5.00
pIC50 (second compound 1 µM): < 5.00
pIC50 (second compound 3.16 µM): < 5.00
pIC50 (second compound 10 µM): < 5.00
SMILES: C=CC(=O)N1CCN(c2nc(=O)n(-c3c(C)ccnc3C(C)C)c3nc(-c4c(O)cccc4F)c(F)cc23)C(C)C1 (centres undefined) + CC(Nc1ncnc2nc[nH]c12)c1cc2cccc(Cl)c2c(=O)n1-c1ccccc1
viability, T/C [1]: 95.8%
viability, T/C [2]: 104%
viability, T/C [3]: 99.1%
viability, T/C [4]: 102%
viability, T/C [5]: 96.6%
viability, T/C [6]: 108%
viability, T/C [7]: 123%
viability, T/C [8]: 108%
viability, T/C [9]: 97.7%
viability, T/C [10]: 94.2%
viability, T/C [11]: 106%
viability, T/C [12]: 104%
viability, T/C [13]: 105%
viability, T/C [14]: 107%
viability, T/C [15]: 107%
viability, T/C [16]: 104%
viability, T/C [17]: 86.7%
viability, T/C [18]: 94.8%
viability, T/C [19]: 107%
viability, T/C [20]: 98.3%
viability, T/C [21]: 100%
viability, T/C [22]: 97.8%
viability, T/C [23]: 105%
viability, T/C [24]: 76.3%
viability, T/C [25]: 79.7%
viability, T/C [26]: 91.6%
viability, T/C [27]: 81.2%
viability, T/C [28]: 98%
viability, T/C [29]: 96.2%
viability, T/C [30]: 86.6%
viability, T/C [31]: 75.7%
viability, T/C [32]: 83.9%
viability, T/C [33]: 75.4%
viability, T/C [34]: 78.7%
viability, T/C [35]: 94.4%
viability, T/C [36]: 91.9%

pIC50 (second compound 0.0316 µM): < 5.00
pIC50 (second compound 0.1 µM): < 5.00
pIC50 (second compound 0.316 µM): < 5.00
pIC50 (second compound 1 µM): < 5.00
pIC50 (second compound 3.16 µM): < 5.00
pIC50 (second compound 10 µM): < 5.00
SMILES: CC(Cn1ccc(-c2ccc(C#N)c(Cl)c2)n1)NC(=O)c1cc(C(C)O)[nH]n1 (centres undefined) + CC(Nc1ncnc2nc[nH]c12)c1cc2cccc(Cl)c2c(=O)n1-c1ccccc1
viability, T/C [1]: 95.7%
viability, T/C [2]: 87.5%
viability, T/C [3]: 89.4%
viability, T/C [4]: 110%
viability, T/C [5]: 87.5%
viability, T/C [6]: 91.8%
viability, T/C [7]: 117%
viability, T/C [8]: 102%
viability, T/C [9]: 104%
viability, T/C [10]: 94.3%
viability, T/C [11]: 81.8%
viability, T/C [12]: 85.6%
viability, T/C [13]: 112%
viability, T/C [14]: 97.3%
viability, T/C [15]: 86.7%
viability, T/C [16]: 87.5%
viability, T/C [17]: 89%
viability, T/C [18]: 78.6%
viability, T/C [19]: 107%
viability, T/C [20]: 83.3%
viability, T/C [21]: 91.9%
viability, T/C [22]: 83.8%
viability, T/C [23]: 83.9%
viability, T/C [24]: 82.4%
viability, T/C [25]: 95.4%
viability, T/C [26]: 103%
viability, T/C [27]: 91.5%
viability, T/C [28]: 87.5%
viability, T/C [29]: 69.2%
viability, T/C [30]: 92.5%
viability, T/C [31]: 91.5%
viability, T/C [32]: 88.6%
viability, T/C [33]: 90%
viability, T/C [34]: 103%
viability, T/C [35]: 83.7%
viability, T/C [36]: 80.7%

Source: PubChem BioAssay AID1963962 (Molecular Pharmacology Branch, DTP, NCI, 2024)
